# Bridges are numbered along the chain shown (N, C = ends). Where no end group is shown, it is not given here.
# How the values were obtained:
# rat ASIC3 channel [1] = molecular target: T1, rat ASIC3 channel (Rattus norvegicus, UniProt O35240); test: Two-electrode voltage clamp, homomeric ASIC3 transient currents in Xenopus laevis oocytes; format: cell-based; details: mean ± SD, 5 cells
# T1 construct: expressed in transfected cells; host or cells: Xenopus laevis oocytes (cRNA injection)
# T1 sequence (O35240 1-533): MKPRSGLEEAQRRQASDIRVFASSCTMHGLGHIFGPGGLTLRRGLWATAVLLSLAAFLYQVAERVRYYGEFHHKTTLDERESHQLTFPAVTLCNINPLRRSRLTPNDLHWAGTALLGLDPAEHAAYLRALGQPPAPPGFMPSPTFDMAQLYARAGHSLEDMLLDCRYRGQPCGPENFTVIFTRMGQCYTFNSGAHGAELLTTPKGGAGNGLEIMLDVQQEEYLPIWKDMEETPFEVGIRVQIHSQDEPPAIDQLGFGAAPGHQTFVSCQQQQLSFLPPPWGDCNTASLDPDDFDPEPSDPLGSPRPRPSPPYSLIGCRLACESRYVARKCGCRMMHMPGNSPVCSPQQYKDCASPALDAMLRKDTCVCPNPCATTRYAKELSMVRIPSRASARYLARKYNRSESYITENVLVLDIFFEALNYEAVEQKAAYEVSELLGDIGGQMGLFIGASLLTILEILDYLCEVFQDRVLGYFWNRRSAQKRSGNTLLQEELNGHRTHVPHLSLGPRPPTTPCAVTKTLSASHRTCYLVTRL
# Procedure: (§1) The study of the pharmacological profile of the Hcr 1b-3 and Hcr 1b-4 peptides from H. crispa was carried out on two major ion channel subtypes, ASIC1a and ASIC3. Homomeric ASIC1a channels expressed in X. laevis oocytes were activated by a rapid pH drop from 7.8 to 5.5 in 15 s after peptide application. To analyze the effect of HcrTxs on the transient component of the ASIC3 current, the channels were activated by rapid extracellular acidification from pH 7.8 to 4.0, but effects on the sustained ASIC3 current were not studied. The inhibitory activity of three class 1b sea anemone toxins, APETx2, Hcr 1b-1, and Hcr 1b-2, towards ASICs was previously assayed in electrophysiological experiments (Table 2). In addition, we previously reported that the Hcr 1b-3 and Hcr 1b-4 peptides inhibited about 54% and 80% of the ASIC1a current, respectively.
# Animal care and animal experiments were performed following the protocol approved by the Animal Care and Use Committee of the Shemyakin-Ovchinnikov Institute of Bioorganic Chemistry, Approval Code: 267/2018; Approval Date: 2 October 2018. RAS. Rat ASIC1a and ASIC3 channels were expressed in Xenopus laevis oocytes after injection of 2.5–10 ng of cRNA, as previously described. After injection oocytes were kept for 2–3 days at 19 °C and then up to 5 days at the temperature of 15–16 °C in sterile ND96 medium (96 mM NaCl, 2 mM KCl, 1.8 mM CaCl2, 1 mM MgCl2, 5 mM HEPES titrated to pH 7.4 with NaOH supplemented with 50 μg/mL of gentamycin). Two-electrode voltage clamp recordings were performed using GeneClamp 500 amplifier (Axon Instruments, Foster City, CA, USA). The data were filtered at 100 Hz and digitized at 1000 Hz by an AD converter L780 (LCard, Moscow, Russia) using in-house software. The solutions were applied to a cell chamber (volume 75 μL). The laminar flow of an external solution of ND96 (pH 7.8) was used at a rate of 1 mL/min. ASIC1a and ASIC3 were activated by a short pH drop from 7.8 to 5.5 or to 4.0 (10 mM MES or 10 mM acetic acid was used as the buffer solution, respectively) in supplementary 0.1% BSA solution. Peptides were applied for up to 15 s before the activation impulse. A value of currents inhibition was calculated as the ratio of the peak current amplitude when the peptide was applied to the average amplitude of the control peak currents before and after the peptide application and expressed as a percentage. To construct the concentration–response curves, a logistic equation was the following: y = ((1 – A)/(1 + ([C]/IC50) nH)) + A; where y is the relative value of current inhibition; C is the peptide concentration; IC50 is the half maximal inhibitory concentration; nH is the Hill coefficient; A is the response value at maximal inhibition (% of control). Calculations were carried out using software Origin 7.0. […]
# rat ASIC1a channel = molecular target: T2, rat ASIC1a channel (Rattus norvegicus, UniProt P55926); test: Two-electrode voltage clamp, homomeric ASIC1a currents in Xenopus laevis oocytes; format: cell-based; details: mean ± SD, 5 cells
# T2 construct: expressed in transfected cells; host or cells: Xenopus laevis oocytes (cRNA injection)
# T2 sequence (P55926 1-526): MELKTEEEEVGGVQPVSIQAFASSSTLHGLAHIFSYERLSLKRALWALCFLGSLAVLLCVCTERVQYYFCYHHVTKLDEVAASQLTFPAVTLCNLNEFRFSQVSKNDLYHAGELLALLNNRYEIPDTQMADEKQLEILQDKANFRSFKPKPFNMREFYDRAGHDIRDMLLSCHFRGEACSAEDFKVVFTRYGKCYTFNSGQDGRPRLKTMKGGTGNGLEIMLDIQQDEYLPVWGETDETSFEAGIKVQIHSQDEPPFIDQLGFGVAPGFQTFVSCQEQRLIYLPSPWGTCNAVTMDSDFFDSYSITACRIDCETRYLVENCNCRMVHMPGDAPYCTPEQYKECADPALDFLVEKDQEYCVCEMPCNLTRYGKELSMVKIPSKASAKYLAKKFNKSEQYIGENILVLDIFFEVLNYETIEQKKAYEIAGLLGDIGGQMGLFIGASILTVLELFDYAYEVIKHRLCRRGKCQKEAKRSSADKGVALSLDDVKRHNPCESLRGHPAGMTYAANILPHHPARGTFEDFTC
# Procedure: as §1
# Animal care and animal experiments were performed following the protocol approved by the Animal Care and Use Committee of the Shemyakin-Ovchinnikov Institute of Bioorganic Chemistry, Approval Code: 267/2018; Approval Date: 2 October 2018. RAS. Rat ASIC1a and ASIC3 channels were expressed in Xenopus laevis oocytes after injection of 2.5–10 ng of cRNA, as previously described. After injection oocytes were kept for 2–3 days at 19 °C and then up to 5 days at the temperature of 15–16 °C in sterile ND96 medium (96 mM NaCl, 2 mM KCl, 1.8 mM CaCl2, 1 mM MgCl2, 5 mM HEPES titrated to pH 7.4 with NaOH supplemented with 50 μg/mL of gentamycin). Two-electrode voltage clamp recordings were performed using GeneClamp 500 amplifier (Axon Instruments, Foster City, CA, USA). The data were filtered at 100 Hz and digitized at 1000 Hz by an AD converter L780 (LCard, Moscow, Russia) using in-house software. The solutions were applied to a cell chamber (volume 75 μL). The laminar flow of an external solution of ND96 (pH 7.8) was used at a rate of 1 mL/min. ASIC1a and ASIC3 were activated by a short pH drop from 7.8 to 5.5 or to 4.0 (10 mM MES or 10 mM acetic acid was used as the buffer solution, respectively) in supplementary 0.1% BSA solution. Peptides were applied for up to 15 s before the activation impulse. A value of currents inhibition was calculated as the ratio of the peak current amplitude when the peptide was applied to the average amplitude of the control peak currents before and after the peptide application and expressed as a percentage. To construct the concentration–response curves, a logistic equation was the following: y = ((1 – A)/(1 + ([C]/IC50) nH)) + A; where y is the relative value of current inhibition; C is the peptide concentration; IC50 is the half maximal inhibitory concentration; nH is the Hill coefficient; A is the response value at maximal inhibition (% of control). Calculations were carried out using software Origin 7.0. The data are presented as mean ± SD.
# NaV1.7 = test system: NaV1.7; set-up: method as in PMID 22442564; details: TTX-sensitive NaV; read-out: EC50, NaV1.7 potentiation; cited from earlier work
# KV3.1 = test system: KV3.1; set-up: method as in PMID 9506974; details: cited from earlier work
# KV3.4 = test system: KV3.4; set-up: method as in PMID 16177043; details: cited from earlier work
# TTX-resistant NaV = test system: TTX-resistant NaV; set-up: method as in PMID 22442564; details: cited from earlier work
# human ASIC3 = details: simian-kidney-derived COS-7 cells; read-out: IC50, inhibition of human ASIC3; cited from earlier work
# From the text: (§2) Table 2 Electrophysiological activity of sea anemone toxins of structural class 1b on homomeric acid-sensing ion channels (ASICs). | column: ASIC3
# rat ASIC3 channel [2] = molecular target: T1, rat ASIC3 channel; details: rat ASIC3, X. laevis oocytes according to footnote of Table 2; read-out: IC50, inhibition of ASIC3 (APETx2); cited from earlier work
# From the text: as §2
# [3] = cited from earlier work
# From the text: Similarly to other APETx-like peptides, HcrTxs form four-stranded antiparallel β-sheets cross-linked by three disulfide bridges (C1–C5, C2–C4, C3–C6). Conforming to the obtained models, the short α-helix (22-24 aa) of HcrTxs localized within the flexible region between the second and third strands (Figure 3a). Hcr 1b-2, -3, -4, and APETx2 are very basic peptides (theoretical pI being of 9.53, 9.23, 9.26, and 9.33, respectively). Basic-aromatic clusters play an important role in the formation of complexes between the ASIC channel and peptide toxins PcTx1, mambalgin- ...
# hERG = test system: hERG; set-up: method as in 2 sources, ref 31 = [31]; PMID 25337890; doi:10.1021/jm501400p; 31. Jensen J.E. Cristofori-Armstrong B. Anangi R. Rosengren K.J. Lau C.H.Y. Mobli M. Brust A. Alewood P.F. King G.F. Rash L.D. Understanding the molecular basis of toxin promiscuity: The analgesic sea ||| ref 33 = [33]; PMID 12815161; doi:10.1124/mol.64.1.59; 33. Diochot S. APETx1, a new toxin from the sea anemone anthopleura elegantissima, blocks voltage-gated human ether-a-go-go-related gene potassium channels Mol. Pharmacol. 2003 64 59 69 10.1124/mol.64; details: cited from earlier work
# NaV1.2 = test system: NaV1.2; set-up: method as in PMID 22972919; details: cited from earlier work
# ASIC3 = details: cited from earlier work
# ASIC1a = details: cited from earlier work
# From the text: Animal toxins produced by spiders, snakes, and sea anemones are considered molecular instruments for the study of ASICs gating and promising drug precursors. […] Peptides from spiders and snakes inhibit mostly mammalian ASIC1a channels. […] Peptides Hcr 1b-3 and Hcr 1b-4, electrophysiologically examined in this study, are the closest homologues of Hcr 1b-1 and Hcr 1b-2 (78%–97% of identity) as well as APETx2 (46%–49% of identity) that are attributed to β-defensin-like peptides. […] (Table 2). Despite the absence of the crucial basic residue Arg17 [31] in the sequence ...
# NaV1.8 = test system: NaV1.8; set-up: method as in PMID 22972919; details: cited from earlier work
# ASIC1b = details: cited from earlier work
# From the text: (§3) It is noteworthy that to increase the current through the ASICs it takes an order of magnitude higher concentration of toxins than to inhibit it. […] No ASIC3 ...
# ASIC2a = details: cited from earlier work
# From the text: as §3
substance,measurement,setting,value
"GTPCDCYGYTGVYWFMLSRCPSGYGYNLSCHYFMGICCVKR (disulfide 4-37, 6-30, 20-38) [Hcr 1b-4]",EC50,"rat ASIC3 channel [1]; X. laevis oocytes, pH drop 7.8 to 4.0 (legend of Figure 4: from 7.4), potentiation, read-out: EC50, potentiation of transient rASIC3 current",1530 ± 70 nM
same,"A, rASIC3 potentiation","rat ASIC3 channel [1]; fit parameter, pH drop to 4.0",207.78 ± 1.56%
same,IC50,"rat ASIC1a channel; X. laevis oocytes, pH drop 7.8 to 5.5 (legend of Figure 4: from 7.4), peptide applied up to 15 s before, logistic fit, read-out: IC50, inhibition of rASIC1a current",1250 ± 40 nM
same,"A (response value at maximal inhibition, % of control), rASIC1a","rat ASIC1a channel; fit parameter, pH drop to 5.5",13.7 ± 0.8%
"BDS-I: toxin BDS-I from sea anemone A. sulcata (AAPCFCSGKPGRGDLWILRGTCPGGYGYTSNCYKWPNICCYPH; UniProt P11494 1-43, looked up)",EC50,NaV1.7,~3 nM
same,IC50,KV3.1,47 nM
same,IC50,KV3.4,220 nM
same,effect on TTX-resistant NaV,TTX-resistant NaV,weakly inhibits TTX-resistant NaV
"APETx2: toxin from sea anemone Anthopleura elegantissima, ASIC3 inhibitor (GTACSCGNSKGIYWFYRPSCPTDRGYTGSCRYFLGTCCTPAD; UniProt P61542 1-42, looked up)",IC50,human ASIC3,175 nM
same,IC50,rat ASIC3 channel [2],63 nM
same,theoretical pI,[3],9.33
same,IC50,hERG,1210 ± 50 nM
same,IC50,NaV1.2,114 ± 25 nM
same,IC50,"ASIC3; species not given, read-out: IC50, inhibition of ASIC3",63 nM
same,effect on ASIC3 sustained component,ASIC3; sustained current,no effect
same,effect on ASIC1a current,ASIC1a,no effect
same,IC50,NaV1.8,55 ± 10 nM
same,effect on ASIC1b current,ASIC1b,potentiate ASIC1b
same,effect on ASIC2a current,ASIC2a,potentiate ASIC1b and ASIC2a currents
